According to ChEMBL document CHEMBL1201862, “PubChem BioAssay data set” (2004):
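Where inhibition never reached the appropriate level, the endpoint shown equals the highest concentration tested. Otherwise, values were interpolated linearly from a five-concentration, 48-hour dose response in 96-well plates. GI50 is the concentration that inhibits growth by half.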 The source made the active and inactive calls. No stated cut-off is given here; in the data, active = GI50 up to about 1.1 µM and inactive = higher.

Key:
Assay in all cases: NCI-60 cell line screen, 48 h
[1] = test system: NCI-H522
[2] = test system: UACC-257
[3] = test system: NCI-H460
[4] = test system: SW-620
[5] = test system: NCI-H226
[6] = test system: K562
[7] = test system: IGROV-1
[8] = test system: MDA-MB-231
[9] = test system: OVCAR-5
[10] = test system: NCI-H23
[11] = test system: CCRF-CEM
[12] = test system: SK-OV-3
[13] = test system: RPMI-8226
[14] = test system: SF-268
[15] = test system: HL-60
[16] = test system: SR
[17] = test system: MCF7
[18] = test system: HOP-62
[19] = test system: MOLT-4
[20] = test system: BT-549
[21] = test system: SN12C
[22] = test system: NCI/ADR-RES
[23] = test system: SNB-75
[24] = test system: COLO 205
[25] = test system: SF-539
[26] = test system: SK-MEL-2
[27] = test system: MDA-N
[28] = test system: HCT-15
[29] = test system: UACC-62
[30] = test system: MDA-MB-435
[31] = test system: OVCAR-8
[32] = test system: A549
[33] = test system: EKVX
[34] = test system: HOP-92
[35] = test system: PC-3
[36] = test system: M14
[37] = test system: LOX IMVI
[38] = test system: SK-MEL-28
[39] = test system: ACHN
[40] = test system: OVCAR-3
[41] = test system: CAKI-1
[42] = test system: Hs-578T
[43] = test system: TK-10
[44] = test system: SNB-19
[45] = test system: U-251
[46] = test system: UO-31
[47] = test system: HCC 2998
[48] = test system: DU-145
[49] = test system: KM12
[50] = test system: SF-295
[51] = test system: HCT-116
[52] = test system: Malme-3M
[53] = test system: HT-29
[54] = test system: 786-0
[55] = test system: SK-MEL-5
[56] = test system: OVCAR-4
[57] = test system: A498
[58] = test system: T47D

Q: What does the source list for `O=C(CNc1ccc(Cl)cc1Cl)NC1C=Cc2ccc(S(=O)(=O)Nc3ccc(Cl)cc3Cl)cc2C1=O` (configuration not stated)?
A: GI50 [1]: > 100 µM (inactive); GI50 [2]: > 100 µM (inactive); GI50 [3]: > 100 µM (inactive); GI50 [4]: > 100 µM (inactive); GI50 [5]: > 100 µM (inactive); GI50 [6]: > 100 µM (inactive); GI50 [7]: > 100 µM (inactive); GI50 [8]: > 100 µM (inactive); GI50 [9]: > 100 µM (inactive); GI50 [10]: > 100 µM (inactive); GI50 [11]: 9.18 µM (inactive); GI50 [12]: > 100 µM (inactive); GI50 [13]: 11 µM (inactive); GI50 [14]: > 100 µM (inactive); GI50 [15]: > 100 µM (inactive); GI50 [16]: > 100 µM (inactive); GI50 [17]: > 100 µM (inactive); GI50 [18]: > 100 µM (inactive); GI50 [19]: > 100 µM (inactive); GI50 [20]: > 100 µM (inactive); GI50 [21]: > 100 µM (inactive); GI50 [22]: > 100 µM (inactive); GI50 [23]: > 100 µM (inactive); GI50 [24]: > 100 µM (inactive); GI50 [25]: > 100 µM (inactive); GI50 [26]: > 100 µM (inactive); GI50 [27]: > 100 µM (inactive); GI50 [28]: > 100 µM; GI50 [29]: > 100 µM (inactive); GI50 [30]: > 100 µM (inactive); GI50 [31]: > 100 µM (inactive); GI50 [32]: > 100 µM (inactive); GI50 [33]: > 100 µM (inactive); GI50 [34]: > 100 µM (inactive); GI50 [35]: > 100 µM (inactive); GI50 [36]: > 100 µM (inactive); GI50 [37]: > 100 µM (inactive); GI50 [38]: > 100 µM (inactive); GI50 [39]: > 100 µM (inactive); GI50 [40]: > 100 µM (inactive); GI50 [41]: > 100 µM (inactive); GI50 [42]: > 100 µM (inactive); GI50 [43]: > 100 µM (inactive); GI50 [44]: > 100 µM (inactive); GI50 [45]: > 100 µM (inactive); GI50 [46]: 54.2 µM (inactive); GI50 [47]: > 100 µM (inactive); GI50 [48]: > 100 µM (inactive); GI50 [49]: > 100 µM (inactive); GI50 [50]: > 100 µM (inactive); GI50 [51]: > 100 µM (inactive); GI50 [52]: > 100 µM (inactive); GI50 [53]: > 100 µM (inactive); GI50 [54]: > 100 µM (inactive)

Q: `COCCNc1cncc(C(N)=O)c1` was tested. Which GI50 [1] did it give?
A: > 100 µM (inactive)

Q: And the GI50 [2]?
A: > 100 µM (inactive)

Q: And the GI50 [3]?
A: > 100 µM (inactive)

Q: And the GI50 [55]?
A: > 100 µM (inactive)

Q: And the GI50 [4]?
A: > 100 µM (inactive)

Q: What about the GI50 [5] of the same compound?
A: > 100 µM (inactive)

Q: What about the GI50 [6] of the same compound?
A: > 100 µM (inactive)

Q: What about the GI50 [7] of the same compound?
A: > 100 µM (inactive)

Q: And the GI50 [8]?
A: > 100 µM (inactive)

Q: And the GI50 [9]?
A: > 100 µM (inactive)

Q: And the GI50 [56]?
A: > 100 µM (inactive)

Q: What about the GI50 [10] of the same compound?
A: > 100 µM (inactive)

Q: What about the GI50 [11] of the same compound?
A: > 100 µM (inactive)

Q: What about the GI50 [12] of the same compound?
A: > 100 µM (inactive)

Q: What about the GI50 [14] of the same compound?
A: > 100 µM (inactive)

Q: What about the GI50 [15] of the same compound?
A: > 100 µM (inactive)

Q: What about the GI50 [16] of the same compound?
A: > 100 µM (inactive)

Q: And the GI50 [17]?
A: > 100 µM (inactive)

Q: What about the GI50 [18] of the same compound?
A: > 100 µM (inactive)

Q: What about the GI50 [19] of the same compound?
A: > 100 µM (inactive)

Q: And the GI50 [20]?
A: > 100 µM (inactive)

Q: What about the GI50 [21] of the same compound?
A: > 100 µM (inactive)

Q: What about the GI50 [22] of the same compound?
A: > 100 µM (inactive)

Q: And the GI50 [23]?
A: 87.9 µM (inactive)

Q: And the GI50 [24]?
A: > 100 µM (inactive)

Q: And the GI50 [25]?
A: > 100 µM (inactive)

Q: What about the GI50 [57] of the same compound?
A: > 100 µM (inactive)

Q: What about the GI50 [26] of the same compound?
A: > 100 µM (inactive)

Q: And the GI50 [27]?
A: > 100 µM (inactive)

Q: What about the GI50 [28] of the same compound?
A: > 100 µM

Q: And the GI50 [29]?
A: > 100 µM (inactive)

Q: What about the GI50 [31] of the same compound?
A: > 100 µM (inactive)

Q: What about the GI50 [32] of the same compound?
A: > 100 µM (inactive)

Q: And the GI50 [33]?
A: > 100 µM (inactive)

Q: What about the GI50 [35] of the same compound?
A: > 100 µM (inactive)

Q: What about the GI50 [36] of the same compound?
A: > 100 µM (inactive)

Q: What about the GI50 [38] of the same compound?
A: > 100 µM (inactive)

Q: What about the GI50 [39] of the same compound?
A: > 100 µM (inactive)

Q: What about the GI50 [58] of the same compound?
A: 65.6 µM (inactive)

Q: What about the GI50 [40] of the same compound?
A: > 100 µM (inactive)

Q: And the GI50 [41]?
A: > 100 µM (inactive)

Q: And the GI50 [42]?
A: > 100 µM (inactive)

Q: What about the GI50 [43] of the same compound?
A: > 100 µM (inactive)

Q: And the GI50 [44]?
A: > 100 µM (inactive)

Q: What about the GI50 [45] of the same compound?
A: > 100 µM (inactive)

Q: What about the GI50 [46] of the same compound?
A: > 100 µM (inactive)

Q: What about the GI50 [47] of the same compound?
A: > 100 µM (inactive)

Q: What about the GI50 [48] of the same compound?
A: > 100 µM (inactive)

Q: And the GI50 [49]?
A: > 100 µM (inactive)

Q: And the GI50 [50]?
A: > 100 µM (inactive)

Q: What about the GI50 [51] of the same compound?
A: > 100 µM (inactive)

Q: And the GI50 [53]?
A: > 100 µM (inactive)

Q: And the GI50 [54]?
A: > 100 µM (inactive)
